Test: blood pressure and pulse of treated type 2 diabetic patients
Assay type: in vivo, human
Settings: type 2 diabetic patients, oral 14.5 mg dihydralazine sulphate twice daily
Experimental: After giving their informed consent, patients participating in the study were treated for 56 days taking ½ tablet twice daily of a pharmaceutical composition containing 28.9 mg dihydralazine sulphate (i.e. the ½ tablet contained 14.5 mg dihydralazine sulphate).
To measure the efficacy and monitor the safety of the treatment, the following examinations were carried out before starting the treatment and at the 1., 7., 14., 28. and 56. day of the treatment: • 1. ocular examinations: visual acuity (ETDRS chart), slit-lamp examination, measurement of intraocular pressure with applanation tonometry, fundus biomicroscopy with pupil dilation, digital fundus photography. The grade of macular edema was determined via measuring retinal thickness with optical coherency tomography (OCT). • 2. internal medicine examinations: anamnesis, physical examinations, blood pressure, pulse, urine examination. • 3. laboratory examinations: blood glucose, HbA1c, liver function, kidney function, microalbuminuria, metabolic panel of the blood , lipids, CRP.
In the table the following abbreviations were used: • BMI: body mass index - weight (kg) / height (m^2) • RRsyst: blood pressure (systolic) (Hgmm) • RRdiast: blood pressure (diastolic) (Hgmm) • OCT CST (central subfield thickness): the average thickness of the central 1-mm area of the macula • OCT CPT (center point thickness): the thickness of the center point of the retina; normally that is the thinnest point of the macula Table 4.

dihydralazine sulphate
blood pressure: no appreciable lowering of blood pressure was observed

Reference: patent EP2326328B1, “USE OF DIHYDRALAZINE FOR THE TREATMENT OF DISEASES RELATED TO ELEVATED SEMICARBAZIDE SENSITIVE AMINE-OXIDASE (SSAO) ACTIVITY” (Semmelweis Egyetem, priority 2008, dated 2010)
